Data taken from patent publication US20230035892A1, “METHODS AND COMPOSITIONS FOR TREATING CANCER” (Flagship Pioneering Innovations V, Inc., priority 2019, published 2023).

Key:
Assay type in all cases: cell-based
[1] = system: pancreatic cancer cell lines; assay: Long-term colony formation assay (10-14 days); details: Panc1, 30 μM, colony formation 10-14 days
From the text: Different concentrations of the compound of Formula III-26 were then used to evaluate its effect on pancreatic cancer cell line proliferation in a long-term colony formation assay (10-14 days).

[2] = system: PAXF1657 stably overexpressing GRK2 cDNA; assay: 7-day CellTiter-Glo anti-proliferative assay; details: PAXF1657, sgNTC, pReceiver-GRK2, 5 or 10 point dose curve
Experimental: Cell lines were seeded into tissue culture treated, white-walled, 96-well plates at a density of 500 cells/well in RPM11640 media supplemented with 10% H.I. FBS and penicillin/streptomycin. Plates were incubated overnight at 37° C., 5% CO2 to allow cells to adhere to the wells. GRK2 small molecule antagonists were added to the cells using a ten-point or five-point dilution series with a final concentration ranging from […] in 0.1% DMSO. At the time of compound addition, a set of plates that were not treated with compounds were collected and cell viability was measured using CellTiter-Glo (Promega). CellTiter-Glo reagent was added to the plates and luminescence was measured using a Biotek Synergy plate reader. The compound treated cells were incubated for 3 days at 37° C., 5% CO2. The media was then aspirated from each well and replaced with fresh media containing GRK2 small molecule antagonists. The compound treated cells were then incubated for another 4 days at 37° C., 5% CO2 and cell viability was assessed at the end of the 7-day compound treatment by CellTiterGlo.

PANC1 = assay: Proliferation, percent viability normalized to DMSO; details: Homo sapiens, PANC-1
From the text: (§1) The GRK2 small molecule antagonist of Formula III-26 was used to evaluate the effect of a small molecule GRK2 antagonist on the proliferation of pancreatic cancer cell lines Miapaca2, Panc1, BXPC3, PAXF1657, PAXF1997 and Capan1. Values represent percent viability normalized to DMSO.

PAXF1657 = assay: as above
From the text: as §1

Capan1 = assay: as above; details: Homo sapiens, CAPAN-1
From the text: as §1

MIAPACA2 = assay: as above; details: Homo sapiens, MIA PaCa-2
From the text: as §1

PAXF1997 = assay: as above
From the text: as §1

BXPC3 = assay: as above; details: Homo sapiens, BXPC-3
From the text: as §1

For `Cn1c(CNc2cccc(C(=O)NCc3ccccc3C(F)(F)F)c2)nnc1-c1ccncc1` [Compound of Formula III-26], the Mean intensity [1] was 181.7, the “Normalized to DMSO” value [1] was 0.44 and the Emax ([2]; 168 h, read-out: Maximum % Growth inhibition relative to DMSO, geometric mean) was 24.8%. It also gave a GI50 ([2]; read-out: GI50, geometric mean) of over 10 µM, a viability at 0.005 µM (PANC1; Panc1, dose 0.005 μM) of 103% and a viability at 0.014 µM (PANC1; Panc1, dose 0.014 μM) of 112%. The viability at 0.041 µM (PANC1; Panc1, dose 0.041 μM) was 113%, the viability at 0.123 µM (PANC1; Panc1, dose 0.123 μM) was 113% and the viability at 0.37 µM (PANC1; Panc1, dose 0.370 μM) was 113%. It also gave a viability at 1.111 µM (PANC1; Panc1, dose 1.111 μM) of 113%, a viability at 3.333 µM (PANC1; Panc1, dose 3.333 μM) of 100% and a viability at 10 µM (PANC1; Panc1, dose 10.000 μM) of 85.2%. The viability at 30 µM (PANC1; Panc1, dose 30.000 μM) was 86.2%, the viability at 0.005 µM (PAXF1657; PAXF1657, dose 0.005 μM) was 111% and the viability at 0.014 µM (PAXF1657; PAXF1657, dose 0.014 μM) was 111%. The viability at 0.041 µM (PAXF1657; PAXF1657, dose 0.041 μM) was 116%, the viability at 0.123 µM (PAXF1657; PAXF1657, dose 0.123 μM) was 118% and the viability at 0.37 µM (PAXF1657; PAXF1657, dose 0.370 μM) was 115%. It also gave a viability at 1.111 µM (PAXF1657; PAXF1657, dose 1.111 μM) of 110%, a viability at 3.333 µM (PAXF1657; PAXF1657, dose 3.333 μM) of 102% and a viability at 10 µM (PAXF1657; PAXF1657, dose 10.000 μM) of 88.6%. For the same compound, the viability at 30 µM (PAXF1657; PAXF1657, dose 30.000 μM) was 69%, the viability at 0.005 µM (Capan1; Capan1, dose 0.005 μM) was 107% and the viability at 0.014 µM (Capan1; Capan1, dose 0.014 μM) was 108%. The viability at 0.041 µM (Capan1; Capan1, dose 0.041 μM) was 112%, the viability at 0.123 µM (Capan1; Capan1, dose 0.123 μM) was 114% and the viability at 0.37 µM (Capan1; Capan1, dose 0.370 μM) was 112%. For the same compound, the viability at 1.111 µM (Capan1; Capan1, dose 1.111 μM) was 106%, the viability at 3.333 µM (Capan1; Capan1, dose 3.333 μM) was 100% and the viability at 10 µM (Capan1; Capan1, dose 10.000 μM) was 90%. The viability at 30 µM (Capan1; Capan1, dose 30.000 μM) was 95.4%, the viability at 0.005 µM (MIAPACA2; Miapaca2, dose 0.005 μM) was 102% and the viability at 0.014 µM (MIAPACA2; Miapaca2, dose 0.014 μM) was 105%. It also gave a viability at 0.041 µM (MIAPACA2; Miapaca2, dose 0.041 μM) of 108%, a viability at 0.123 µM (MIAPACA2; Miapaca2, dose 0.123 μM) of 111% and a viability at 0.37 µM (MIAPACA2; Miapaca2, dose 0.370 μM) of 114%. It also gave a viability at 1.111 µM (MIAPACA2; Miapaca2, dose 1.111 μM) of 99.3%, a viability at 3.333 µM (MIAPACA2; Miapaca2, dose 3.333 μM) of 86.6% and a viability at 10 µM (MIAPACA2; Miapaca2, dose 10.000 μM) of 66.1%. For the same compound, the viability at 30 µM (MIAPACA2; Miapaca2, dose 30.000 μM) was 40%, the viability at 0.005 µM (PAXF1997; PAXF1997, dose 0.005 μM) was 111% and the viability at 0.014 µM (PAXF1997; PAXF1997, dose 0.014 μM) was 111%. The viability at 0.041 µM (PAXF1997; PAXF1997, dose 0.041 μM) was 112%, the viability at 0.123 µM (PAXF1997; PAXF1997, dose 0.123 μM) was 114% and the viability at 0.37 µM (PAXF1997; PAXF1997, dose 0.370 μM) was 118%. It also gave a viability at 1.111 µM (PAXF1997; PAXF1997, dose 1.111 μM) of 110%, a viability at 3.333 µM (PAXF1997; PAXF1997, dose 3.333 μM) of 104% and a viability at 10 µM (PAXF1997; PAXF1997, dose 10.000 μM) of 83.7%. For the same compound, the viability at 30 µM (PAXF1997; PAXF1997, dose 30.000 μM) was 81.4%, the viability at 0.005 µM (BXPC3; BXPC3, dose 0.005 μM) was 106% and the viability at 0.014 µM (BXPC3; BXPC3, dose 0.014 μM) was 105%. The viability at 0.041 µM (BXPC3; BXPC3, dose 0.041 μM) was 104%, the viability at 0.123 µM (BXPC3; BXPC3, dose 0.123 μM) was 104% and the viability at 0.37 µM (BXPC3; BXPC3, dose 0.370 μM) was 108%. For the same compound, the viability at 1.111 µM (BXPC3; BXPC3, dose 1.111 μM) was 102%, the viability at 3.333 µM (BXPC3; BXPC3, dose 3.333 μM) was 91.5% and the viability at 10 µM (BXPC3; BXPC3, dose 10.000 μM) was 77%. For the same compound, the viability at 30 µM (BXPC3; BXPC3, dose 30.000 μM) was 75.8%.
